The values that follow are results of earlier work, collected in PMC6443429 (Molecular pharmaceutics, 2019).

Data set [1] deals with MC1R, B16/F10 melanoma cells.
Data set [2] has as its system MC1R, B16/F1 melanoma cells.

For the substance “1,4,7,10-tetraazacyclononane-1,4,7,10-tetraacetic acid-Gly-Gly-Nle-c[Asp-His-DPhe-Arg-Trp-Lys]-CONH2 (sidechain bridge or staple) [DOTA-GGNle-CycMSHhex]”, the MC1R binding affinity entry in data set [1] and in data set [2] was “nanomolar” each time.
